Legend:
Format in all cases: in vivo
[1] = system: Digitaria sanguinalis (DIGSA); experiment: Herbicidal pre-emergence action, DIGSA
Text: (§1) Seeds of mono- and dicotyledonous weed plants were sown in plastic pots (double sowings with one species of mono- and one species of dicotyledonous weed plants per pot), in sandy loam, and covered with soil. The compounds according to the invention, formulated in the form of wettable powders (WP) or as emulsifiable concentrates (EC), were applied to the surface of the covering soil as an aqueous suspension or as an emulsion, with the addition of 0.5% of an additive, at an application rate of 600 litres of water per hectare (converted). Following treatment, the pots were placed in a greenhouse and kept under optimum growth conditions for the test plants. The visual grading of the damage to the test plants is carried out after ca. 3 weeks in comparison to untreated controls (herbicidal effect in percent (%): 100% effect=plants have died, 0% effect=as control plants). Seeds of mono- and dicotyledonous weed plants were sown in plastic pots (double sowings with one species of mono- and one species of dicotyledonous weed plants per pot), in sandy loam, and covered with soil. The compounds according to the invention, formulated in the form of wettable powders (WP) or as emulsifiable concentrates (EC), were applied to the surface of the covering soil as an aqueous suspension or as an emulsion, with the addition of 0.5% of an additive, at an application rate of 600 litres of water per hectare (converted). Following treatment, the pots were placed in a greenhouse and kept under optimum growth conditions for the test plants. The visual grading of the damage to the test plants is carried out after ca. 3 weeks in comparison to untreated controls (herbicidal effect in percent (%): 100% effect=plants have died, 0% effect=as control plants).

[2] = system: Poa annua (POAAN); experiment: Herbicidal pre-emergence action, POAAN
Text: as §1

[3] = system: Setaria viridis (SETVI); experiment: Herbicidal pre-emergence action, SETVI
Text: as §1

[4] = system: Abutilon theophrasti (ABUTH); experiment: Herbicidal post-emergence action, ABUTH; settings: 1280 g/ha, assessed visually after ca. 3 weeks vs untreated controls (Table B1)
Text: (§2) Seeds of mono- and dicotyledonous weed plants were sown in plastic pots (double sowings with one species of mono- and one species of dicotyledonous weed plants per pot), in sandy loam, covered with soil and grown under controlled growth conditions. 2 to 3 weeks after sowing, the test plants were sprayed in the single-leaf stage. The compounds according to the invention, formulated in the form of wettable powders (WP) or as emulsifiable concentrates (EC), were sprayed onto the green plant parts as an aqueous suspension or as an emulsion, with the addition of 0.5% of an additive, at an application rate of 600 litres of water per hectare (converted). The test plants were placed in the greenhouse for ca. 3 weeks under optimum growth conditions, and then the effect of the preparations is assessed visually in comparison with untreated controls (herbicidal effect in percent (%): 100% effect=plants have died, 0% effect=as control plants).

[5] = system: Kochia scoparia (KCHSC); experiment: Herbicidal post-emergence action, KCHSC
Text: as §2, with “plants).[…]” for “plants).”

[6] = system: Matricaria inodora (MATIN); experiment: Herbicidal post-emergence action, MATIN
Text: as §2, with “plants).[…]” for “plants).”

[7] = system: Stellaria media (STEME); experiment: Herbicidal post-emergence action, STEME
Text: as §2, with “plants).[…]” for “plants).”

[8] = system: Alopecurus myosuroides (ALOMY); experiment: Herbicidal pre-emergence action, ALOMY; settings: 1280 g/ha, visual grading after ca. 3 weeks vs untreated controls (Table A12)
Text: Seeds of mono- and dicotyledonous weed plants were sown in plastic pots (double sowings with one species of mono- and one species of dicotyledonous weed plants per pot), in sandy loam, and covered with soil. The compounds according to the invention, formulated in the form of wettable powders (WP) or as emulsifiable concentrates (EC), were applied to the surface of the covering soil as an aqueous suspension or as an emulsion, with the addition of 0.5% of an additive, at an application rate of 600 litres of water per hectare (converted). Following treatment, the pots were placed in a greenhouse and kept under optimum growth conditions for the test plants. The visual grading of the damage to the test plants is carried out after ca. 3 weeks in comparison to untreated controls (herbicidal effect in percent (%): 100% effect=plants have died, 0% effect=as control plants).

[9] = system: Alopecurus myosuroides (ALOMY); experiment: Herbicidal post-emergence action, ALOMY; settings: 1280 g/ha, assessed visually after ca. 3 weeks vs untreated controls (Table B2)
Text: as §2

[10] = system: Setaria viridis (SETVI); experiment: Herbicidal post-emergence action, SETVI
Text: as §2, with “plants).[…]” for “plants).”

[11] = 1280 g/ha, visual grading after ca. 3 weeks vs untreated controls (Table A2)
[12] = 320 g/ha, visual grading after ca. 3 weeks vs untreated controls (Table C4)
[13] = 1280 g/ha, visual grading after ca. 3 weeks vs untreated controls (Table A7)
[14] = 320 g/ha, visual grading after ca. 3 weeks vs untreated controls (Table C5)
[15] = 1280 g/ha, visual grading after ca. 3 weeks vs untreated controls (Table A8)
[16] = 320 g/ha, assessed visually after ca. 3 weeks vs untreated controls (Table D1)
[17] = 1280 g/ha, assessed visually after ca. 3 weeks vs untreated controls (Table B4)
[18] = 320 g/ha, assessed visually after ca. 3 weeks vs untreated controls (Table D2)
[19] = 1280 g/ha, assessed visually after ca. 3 weeks vs untreated controls (Table B6)
[20] = 320 g/ha, assessed visually after ca. 3 weeks vs untreated controls (Table D4)
[21] = 1280 g/ha, assessed visually after ca. 3 weeks vs untreated controls (Table B9)

| SMILES | herbicidal effect in percent, DIGSA [1, 11] [%] | herbicidal effect in percent, POAAN [2, 12] [%] | herbicidal effect in percent, POAAN [2, 13] [%] | herbicidal effect in percent, SETVI [3, 14] [%] | herbicidal effect in percent, SETVI [3, 15] [%] | herbicidal effect in percent, ABUTH [4] [%] | herbicidal effect in percent, KCHSC [5, 16] [%] | herbicidal effect in percent, KCHSC [5, 17] [%] | herbicidal effect in percent, MATIN [6, 18] [%] | herbicidal effect in percent, MATIN [6, 19] [%] | herbicidal effect in percent, STEME [7, 20] [%] | herbicidal effect in percent, STEME [7, 21] [%] | herbicidal effect in percent, ALOMY [8] [%] | herbicidal effect in percent, DIGSA ([1]; 320 g/ha, visual grading after ca. 3 weeks vs untreated controls (Table C10)) [%] | herbicidal effect in percent, ALOMY [9] [%] | herbicidal effect in percent, SETVI ([10]; 320 g/ha, assessed visually after ca. 3 weeks vs untreated controls (Table D8)) [%] | herbicidal effect in percent, SETVI ([10]; 1280 g/ha, assessed visually after ca. 3 weeks vs untreated controls (Table B7)) [%] |
| --- | --- | --- | --- | --- | --- | --- | --- | --- | --- | --- | --- | --- | --- | --- | --- | --- | --- |
| O=C(Nc1ncns1)c1c(C2CC2)ccnc1Cl [Example I-003, 2-chloro-4-cyclopropyl-N-(1,2,4-thiadiazol-5-yl)pyridine-3-carboxamide] | 90 | 90 | 100 | 100 | 100 | 90 | 90 | 100 | 90 | 100 | 100 | 100 |  |  |  |  |  |
| O=C(Nc1ncns1)c1c(C2CC2)ccnc1F [Example I-005] | 90 | 100 | 100 | 100 | 100 |  | 100 | 100 | 100 | 100 | 100 | 100 | 100 | 90 | 90 | 90 | 100 |
| O=C(Nc1nc(Cl)ns1)c1c(C2CC2)ccnc1Cl [Example I-013] |  |  |  |  |  | 90 |  |  | 90 | 90 | 90 | 90 |  |  | 90 |  |  |

Source: patent US20240352010A1, “SUBSTITUTED 1,2,4-THIADIAZOLYL NICOTINAMIDES, SALTS OR N-OXIDES THEREOF AND THEIR USE AS HERBICIDALLY ACTIVE SUBSTANCES” (BayerAktiengesellschaft, priority 2021, published 2024)
